Results as given in PubChem BioAssay (NCI).
Several values for one entry are separate records, joined by “and”; a condition that tells them apart may be missing. Equal values may be shown once.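 Tested at 5 concentrations; 48 h exposure; 96-well plates; endpoints linearly interpolated, else capped at highest concentration. Here, GI50 denotes the concentration required for 50% inhibition of growth. TGI denotes the concentration required for complete inhibition of growth.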

Columns and labels:
Experiment in all cases: NCI-60 cell line screen, 48 h
[1] = test system: MOLT-4 leukemia
[2] = test system: CCRF-CEM leukemia
[3] = test system: SF-539 CNS
[4] = test system: RXF 393 renal
[5] = test system: NCI-H522 lung
[6] = test system: SK-MEL-2 melanoma
[7] = test system: OVCAR-3 ovarian
[8] = test system: HOP-62 NSCLC
[9] = test system: ACHN renal
[10] = test system: OVCAR-5 ovarian

| Structure (SMILES) | TGI [1] | GI50 [2] | TGI [2] | GI50 [3] | TGI [3] | GI50 [4] | TGI [4] | GI50 [5] | TGI [5] | GI50 [6] | TGI [6] | GI50 [7] | TGI [7] | GI50 [8] | TGI [8] | GI50 [9] | TGI [9] [µM] | GI50 [10] | TGI [10] | GI50 [1] [µM] |
| --- | --- | --- | --- | --- | --- | --- | --- | --- | --- | --- | --- | --- | --- | --- | --- | --- | --- | --- | --- | --- |
| CCN(CC)CCCC(CCl)Nc1ccnc2cc(Cl)ccc12 (stereo not drawn) | 81.1 µM and > 34.3 µM | 13.7 µM and 16.9 µM | 39.7 µM and 51.5 µM | 10.7 µM and 11.4 µM | 24.8 µM and 27.5 µM | 4.95 µM and 10.6 µM | 24.5 µM and > 49.1 µM | 25.7 µM and 25.1 µM | 67.8 µM and > 73.6 µM | 25.4 µM and 35 µM | 57.5 µM and > 100 µM | 10.9 µM and 6.23 µM | 34.7 µM and 28 µM | 25.7 µM and 28.7 µM | 71.8 µM and > 100 µM | 36 µM and 6.74 µM | > 100 | 11.4 µM and 23.5 µM | 28.6 µM and > 61.3 µM | – |
| Oc1ccc2ccccc2c1N=Nc1cccc2ccccc12 | > 100 µM | – | > 100 µM | – | 76.3 µM | – | > 100 µM | – | > 100 µM | – | > 100 µM | – | > 100 µM | – | > 100 µM | – | > 100 | – | > 100 µM | – |
| COc1ccc(NC(=O)CC/C(CC(=O)c2ccco2)=N/NC(=O)C(N)=O)cc1 | > 100 µM | – | > 100 µM | – | > 100 µM | – | > 100 µM | – | > 100 µM | – | > 100 µM | – | > 100 µM | – | > 100 µM | – | > 100 | – | > 100 µM | – |
| COCCOC(=O)C1=C(O)c2ccccc2S(=O)(=O)N1C | > 100 µM | – | > 100 µM | – | > 100 µM | – | > 100 µM | – | > 100 µM | – | > 100 µM | – | > 100 µM | – | > 100 µM | – | > 100 | – | > 100 µM | – |
| CC1(O)C(C)(O)C2(C)O[Te]3(OC12C)OC1(C)C(C)(O)C(C)(O)C1(C)O3 (stereo not drawn) | 34.5 µM | – | 22.9 µM | – | > 100 µM | – | 37.6 µM | – | 42.2 µM | – | > 100 µM | – | 41.5 µM | – | > 100 µM | – | > 100 | – | 29.4 µM | – |
| CC(C)(C)c1cc([N+](=O)[O-])cc([N+](=O)[O-])c1O | > 10 µM | – | > 10 µM | – | > 10 µM | – | > 10 µM | – | > 10 µM | – | > 10 µM | – | > 10 µM | – | > 10 µM | – | > 10 | – | > 10 µM | – |
| Cn1c(Cl)c(/C=C2/C(=O)Nc3ccccc32)c2ccccc21 | – | 0.592 µM | > 22.1 µM | 0.17 µM | 1.06 µM | 0.392 µM | > 19.6 µM | 2.39 µM | 22.4 µM | 2.32 µM | 26.1 µM | 0.204 µM | 1.26 µM | 0.293 µM | 6.68 µM | 1.15 µM | 18.8 | 3.85 µM | 27.8 µM | 0.139 |
| O=C1C=C(Nc2ccccc2C(=O)CC(=O)C(=O)Nc2cccc([N+](=O)[O-])c2)c2ccccc2C1=O | > 100 µM | – | 87.8 µM | – | > 100 µM | – | > 100 µM | – | 70.6 µM | – | > 100 µM | – | 55.2 µM | – | > 100 µM | – | > 100 | – | > 100 µM | – |
| Cc1cn(-c2cc(NC(=O)c3cccc(C#Cc4cccc5[nH]nc(N)c45)c3)cc(C(F)(F)F)c2)cn1 | > 100 µM | 4.88 µM | > 100 µM | 1.3 µM | 14.3 µM | 5.1 µM | 21.6 µM | 5.48 µM | 49 µM | 2.27 µM | 8.14 µM | 11.1 µM | 83.1 µM | 3.99 µM | 18.3 µM | 3.86 µM | 16 | 3.16 µM | > 100 µM | 3.84 |
